Assay results published in publication PMC10584170, “Machine learning-based phenotypic imaging to characterise the targetable biology of Plasmodium falciparum male gametocytes for the development of transmission-blocking antimalarials” (PLOS Pathogens, 2023).
Like-named read-outs stand apart in the source and are kept apart here.

Columns and labels:
[1] = test system: P. falciparum male gametocytes; test: PhIDDLI screening assay, 24 h preincubation at 10xIC50, tubulin/DAPI imaging of male gametogenesis; type: cell-based, Plasmodium falciparum NF54; conditions: approximately 10xIC50, fixed 20 min post-induction
Description: Mature gametocytes were treated for 24h with approximately 10xIC50 of test compounds or DMSO as a solvent control. Male gametogenesis was then induced by lowering the temperature from 37°C to ~20°C and adding xanthurenic acid. 20min later, when male gametogenesis (exflagellation) could be expected to peak, all samples were fixed. A sample of non-induced DMSO-treated gametocytes was fixed with 4% paraformaldehyde to provide an unactivated gametocyte control for comparison. The cells were then processed for immunofluorescence using an antibody against alpha-tubulin II and DNA staining with 4′,6-diamidino-2-phenylindole (DAPI) and visualised by fluorescence microscopy. Tubulin-bright cells from each treated sample were imaged and captured at random.
Cells were identified using a semi-automated pipeline established in the ICY BioImageAnalysis (https://icy.bioimageanalysis.org/) protocols module. Images and accompanying bounding boxes representing the outlines of identified cells were then passed to the PhIDDLI pipeline. PhIDDLI consists of several open source image processing and AI/ML modules connected for seamless processing, clustering and visualisation of cellular phenotypes (Fig 3A). […] To focus on the overall cellular phenotype rather than potentially confounding variable immunostaining intensities between experimental replicates, cells were transformed so that the range of staining intensities for each channel were normalised to fall between a 0–255 pixel intensity value. Then, using the Albumentations module (https://albumentations.ai/) to augment the dataset and control for cells in different orientations, each extracted cell image was rotated 90, 180 and 270 degrees and mirrored so that each cell was represented eight different times in the dataset. The augmented images were then passed to the EffcientNet-B1 module (https://github.com/tensorflow/tpu/tree/master/models/official/efficientnet) (a pretrained neural network developed for image processing) which extracted 1,000 distinct numerical features from each individual cell image. The EfficientNet-B1 was selected from amongst the other EfficientNet models due to its input image size (240 pixels) best matching the size of the individual cell images in the dataset, therefore ensuring maximal input data whilst allowing acceptable computation time on a desktop computer. […]
Mature gametocyte cultures were divided into 100 μl “microcultures” in pre-warmed 1.5 ml tubes also containing 100 μl complete culture medium with test compounds at a final concentration of 10xIC50 or 0.5% DMSO as a solvent control. Tubes were gassed and incubated at 37°C for 24 h. The entire compound library was screened once, spread over four different experiments, each with two DMSO control tubes. An 8% formaldehyde solution was prepared by diluting 16% methanol-free formaldehyde in an equal volume of phosphate-buffered saline (PBS). In each experiment, one DMSO control tube was fixed with equal volume of 8% formaldehyde (4% final concentration) at 37°C to provide an “unactivated” gametocyte control. Gametogenesis was then triggered in the remaining DMSO control tube and all compound tubes by adding 10 μl ookinete medium, and they were immediately incubated at room temperature. After 20 min (when exflagellation is maximal), all remaining tubes were fixed for 30 min.
100 μl of the fixed cell suspensions were added to wells of a 24 well plate containing 1ml PBS and a poly-l-lysine-coated glass coverslip.

[2] = test system: P. falciparum male gametocytes; test: P. falciparum Dual Gamete Formation Assay (PfDGFA), male readout (exflagellation); type: cell-based, Plasmodium falciparum NF54; conditions: for IC50: this study, read-out: Pf DGFA IC50 MALE
Procedure, shortened: (§1)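 Read-outs are automated image counts of exflagellation centres (brightfield, 10 frames over 1 s) and Pfs25-positive female gametes (Cy3 fluorescence).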

[3] = test system: P. falciparum female gametocytes; test: P. falciparum Dual Gamete Formation Assay (PfDGFA), female readout (Pfs25-positive female gametes); type: cell-based, Plasmodium falciparum NF54; conditions: for IC50: this study, read-out: Pf DGFA IC50 FEM
Procedure, shortened: as §1

[4] = test system: P. falciparum male gametocytes; test: PhIDDLI timecourse assay, compound added at timepoints after triggering male gametogenesis; type: cell-based, Plasmodium falciparum NF54; conditions: for impact on exflagellation: compound added concurrent with triggering gametogenesis or at any other point
Description: To gain greater understanding of their activity, selected molecules displaying different inhibition phenotypes in the initial screen were re-tested. Rather than subjecting gametocytes to a 24h preincubation prior to inducing gametogenesis, compounds were added at varying timepoints after triggering male gametogenesis. Samples were then fixed 20 min post-induction, imaged and analysed similarly using the PhIDDLI pipeline.
Alternatively, if compound action over time was to be assessed, 1.5ml tubes with appropriate dilutions of test compounds were prepared for each timepoint. Gametogenesis was then triggered in the mature gametocyte culture with ookinete medium and temperature decrease from 37°C. At appropriate times, 200 μl of triggered culture was sampled and mixed with test compound. All samples were then allowed to continue gametogenesis and fixed as described previously with paraformaldehyde after 20 min (when a DMSO-treated sample could be expected to be exflagellating).
100 μl of the fixed cell suspensions were added to wells of a 24 well plate containing 1ml PBS and a poly-l-lysine-coated glass coverslip. Cells were allowed to settle and adhere to the coverslip overnight at 4°C before coverslips were transferred to a hydrophobic membrane (Parafilm) for immunofluorescence staining in a humidified, dark box. Cells were permeabilised with 0.1% Triton-X100 in PBS for 10 min before washing in PBS three times. Non-specific binding was blocked by incubating coverslips with PBS + 10% fetal bovine serum (FBS) (blocking buffer) for 1 h. Gametocytes and microgametes were visualised by labelling with an anti-alpha tubulin antibody (raised from chicken embryo brain tubulin but cross-reacts with many other species) (clone DM1A (Sigma)) 1:500 dilution in blocking buffer for 1 h, washed as before, and then stained with an anti-mouse Alexa488 secondary antibody (Thermo-Fisher) 1:1,000 dilution in blocking buffer for a further 1 h. After a final series of washes, the coverslips were mounted on glass slides with VectaShield mountant (Vector Laboratories) containing 4′,6-diamidino-2-phenylindole (DAPI) to visualise cellular DNA.
All slides were imaged using a Nikon Ti fluorescence microscope using an x100 oil objective and 1.5x zoom. For each sample, tubulin-postive, DAPI-positive stained gametocytes/gametes were imaged at random. Z-stack images with 0.3μm slices were captured for each field of view and images deconvolved and transformed by maximum intensity projection within the Nikon NIS Elements software. Within raw images, cells were initially identified by an automated analysis pipeline developed in ICY Bioimage Analysis based upon the intensity of the tubulin staining captured which assigns a region of interest (ROI) around each cell. All ROIs were reviewed by a trained operator and adjusted if necessary to reflect the true outline of the cell (for example if two cells touching had been allocated the same ROI). Raw images contained between 1 and 8 extractable cells.
Code for the PhIDDLI pipeline was written in Python 3.8 and executed by command line within a 64-bit Ubuntu virtual machine running within Oracle VM VirtualBox 6.1. […] Principle component analysis of compound phenotypes (Fig 5) was performed using ClustViz (https://biit.cs.ut.ee/clustvis/) using ln(x+1) transformation, and k-means clustering of the resultant PCA data was coded in R and executed in R Studio version 1.1.456 to identify optimum cluster using the elbow method.

[5] = test system: P. falciparum gametocytes; test: P. falciparum Gametocyte Viability ATP Assay (PfGCT); type: cell-based, Plasmodium falciparum; conditions: Mean TOX HepG2 over GC-ATP IC50; GREEN = >10-fold; RED = <10-fold
Text: Fig 1 The activity of TCAMS compound identified in the Pf DGFA screen. (A) 85 molecules were confirmed active in the Pf DGFA. 58 were previously identified in one or more transmission-blocking screens. […] No molecule was identified with >4.7-fold greater activity against female gametocytes. Abbreviations (IC50 = concentration giving 50% inhibition, PbODA = P. berghei Ookinete Development Assay, PfDGFA = P. falciparum Dual Gamete Formation Assay, PfFGAA = P. falciparum Female Gametocyte Activation Assay, PfGCT = P. falciparum Gametocyte Viability ATP Assay).

[6] = test system: P. falciparum gametocytes; design: method as in Almela et al 2015; conditions: ref Almela et al 2015; read-out: Pf Gametocyte viability (ATP) GC-ATP IC50; cited from earlier work
[7] = test system: HepG2 cells; conditions: cited from earlier work
[8] = test system: HepG2 cells; test: HepG2 cytotoxicity counter-screen; conditions: mean of the HepG2 TOX50 values
[9] = test system: P. falciparum female gametocytes; test: P. falciparum Female Gametocyte Activation Assay (PfFGAA); type: cell-based, Plasmodium falciparum; conditions: Mean TOX HepG2 over FGAA IC50; GREEN = >10-fold; RED = <10-fold
[10] = test system: P. falciparum female gametocytes; design: method as in Miguel-Blanco et al 2017; conditions: ref Miguel-Blanco et al 2017; read-out: Pf female gametogenesis FGAA IC50; cited from earlier work
[11] = test system: P. berghei ookinete development; test: P. berghei Ookinete Development Assay (PbODA); type: cell-based, Plasmodium berghei; conditions: Mean TOX HepG2 over Pb ODA value; GREEN = >10-fold; RED = <10-fold

| Structure (SMILES) | Cellular phenotype of male gametocytes [1] | Cytotox ratio Pf Male [2] | IC50 [2] [nM] | Cytotox ratio Pf Female [3] | IC50 [3] [nM] | impact on exflagellation [4] | Cytotox ratio Pf GC-ATP [5] | IC50 [6] [nM] | GC-ATP TOX50 HepG2 [7] [µM] | Mean TOX [8] [µM] | Cytotox ratio Pf FGAA [9] | IC50 [10] [nM] | FGAA TOX50 HepG2 [7] [µM] | cells exflagellating ([4]; compound added concurrent with triggering gametogenesis, DMSO control 43.7%) [%] | Cytotox ratio Pb Ookinete [11] | ODA TOX50 HepG2 ([7]; HepG2 value reported with the ODA screen, ref Delves et al 2019) [µM] |
| --- | --- | --- | --- | --- | --- | --- | --- | --- | --- | --- | --- | --- | --- | --- | --- | --- |
| O=S(=O)(NCC1(O)CCOc2ccccc21)c1ccc(Br)s1 (stereo not drawn) [DDD01035881, reference compound] | arrested male gametogenesis late |  |  |  |  |  |  |  |  |  |  |  |  |  |  |  |
| COc1ccc2nc3cc(Cl)ccc3c(NCCCCNc3c4ccc(Cl)cc4nc4ccc(OC)cc34)c2c1 [TC02] |  | 22.1 | 380 | 22.1 | 380 | little-to-no impact | 42.0 | 200 | 14.47 | 8.39 |  |  |  |  |  |  |
| CC(C)(C)c1ccc(-c2nc3c(ccc4nc(N)nc(N)c43)[nH]2)cc1.Cl [TC05] |  | 17.1 | 180 | 3.2 | 970 | little-to-no impact | 14.6 | 210 | 3.85 | 3.07 | 11.8 | 260 | 2.12 |  |  |  |
| O=C(c1ccc([N+](=O)[O-])o1)N1CCC(Cc2ccc(C(F)(F)F)cc2)CC1 [TC15] | retain their falciform shape but have a condensed mass of unreplicated DNA and several thin microtubule structures | 58.0 | 400 | 52.7 | 440 |  | 89.2 | 260 | 14.11 | 23.20 | 145.0 | 160 | 27.05 |  |  |  |
| CCN(CC)CCN(Cc1ccc(-c2ccc(C(F)(F)F)cc2)cc1)C(=O)Cn1cc(Cc2cnn(C)c2)c(=O)nc1/C=C/c1cccc(F)c1F.O=C(O)C(O)C(O)C(=O)O [TC18] | retain their falciform shape but have a condensed mass of unreplicated DNA and several thin microtubule structures | 19.6 | 630 | 3.0 | 4100 |  | 72.7 | 170 | 14.4 | 12.35 | 14.2 | 870 | 9.69 |  |  |  |
| Fc1ccc2[nH]c(-c3ccc(-c4ccc(CNCCN5CCNCC5)cc4)s3)nc2c1.O=C(O)C(F)(F)F [TC23] |  | 12.4 | 1970 | 3.4 | 7180 |  | 46.3 | 530 | 25 | 24.53 |  |  |  | 19.8 |  |  |
| COc1cc(-c2nc(C(C)(C)CN)[nH]c2-c2ccncc2)ccc1Br.Cl [TC27] | unactivated phenotype consistent with total arrest of gametogenesis | 23.6 | 1770 | 25.9 | 1610 |  |  |  |  | 41.74 |  |  |  |  | 31592.6 | 39.811 |
